One molecule from PMC8589421, “Impact of Type II LRRK2 inhibitors on signaling and mitophagy” (Biochemical Journal, 2021) can be followed below.

Structures are written as SMILES. pIC50: −log10 of the molar value.

Usually pIC50 stands for the negative decadic logarithm of the IC50, by convention in mol/L.

Experiment [1] has as its system basal mitophagy, LRRK2 knock-out MEFs. The experiment in a line: mito-QC basal mitophagy in LRRK2 knock-out primary MEFs. In kind it is cell-based, mouse. The settings on record: 24 h. The method, then:
To assess mitophagy, wild type, G2019S knock in, and LRRK2 knock out primary mouse embryonic fibroblasts (MEFs) were derived, from time-mated pregnant females at E12.5 as previously described. Briefly, cells were plated on glass coverslips and incubated with DMEM (Gibco, 11960-044) supplemented with 10% FBS, 2 mM L-Glutamine (Gibco, 2503-081), 1% non-essential amino acids (Gibco, 11140-035), 1% Antibiotics (Penicillin/Streptomycin 100 U/ml penicillin and 100 µg/ml streptomycin; Gibco), and 150 µM β-Mercaptoethanol (Gibco, 21985-023) at 37°C under a humidified 5% CO2 atmosphere. […] GSK3357679A 100 nM (Ding et al., in prep) was used as a positive control. At the end of the treatment, MEFs were briefly washed twice in DPBS (Gibco, 14190-094), and fixed in 3.7% Paraformaldehyde pH 7.00 (Sigma, P6148), 200 mM HEPES, for 20 min. Cells were then washed two times with DMEM, 10 mM HEPES, and then incubated for 10 min with DMEM, 10 mM HEPES. […] Images were acquired using a Nikon Eclipse Ti-S fluorescence microscope with a 63× objective. Images were analyzed using the mito-QC counter as previously described. Experiments were performed in 3–4 independent experiments and data was analyzed with a one-way ANOVA followed by a Dunnett's multiple comparison test using the GraphPad Prism software (version 8.4.3 (686)).

Experiment [2] deals with phosphorylation of Rab12 (Ser105). Description: Rab12 phospho-immunoblot in wild-type MEFs. Type of experiment: cell-based, mouse. The method, then: Wild-type and homozygous LRRK2 [R1441C] (Jax, stock number: 009346), LRRK2[G2019S] Taconic, (model 13940) and LRRK2 [A2016T] (Jax, stock number: 021828)[7] knock-in MEF cells were isolated from littermate-matched mouse embryos on a C57BL/6J background at day E12.5 as described previously. MEFs were grown in Dulbecco's modified Eagle medium (DMEM GIBCO, #11960-085) containing 10% (by vol) fetal bovine serum (FBS), 2 mM L-glutamine, 100 U/ml penicillin, and […] streptomycin supplemented with non-essential amino acids and 1 mM sodium pyruvate. Human embryonic kidney 293 (HEK293) (#ATCC CRL-1573) and HeLa (#ATCC CCL-2) cells were purchased from American Tissue Culture Collection (ATCC) and cultured in DMEM containing 10% (by vol) FBS, 2 mM L-glutamine, 100 U/ml penicillin, and […] streptomycin. All cells were grown at 37°C, 5% (by vol) CO2 in a humidified atmosphere and regularly tested for mycoplasma contamination.
Inhibitors were dissolved in dimethyl sulfoxide (DMSO) (Sigma, #D2650). The inhibitors were diluted 1000× into cell medium. The equivalent volume of DMSO was added to the minus inhibitor controls. Experiments were performed in six-well plates, 10 cm dishes or 15 cm dishes depending on the amount of cell extract required.
Cells were lysed in an ice-cold lysis buffer containing 50 mM Tris–HCl, pH 7.4, 1% (by vol) Triton X-100, 10% (by vol) glycerol, 150 mM NaCl, 1 mM sodium orthovanadate, 50 mM NaF, 10 mM 2-glycerophosphate, 5 mM sodium pyrophosphate, 1 µg/ml microcystin-LR, and cOmplete EDTA-free protease inhibitor cocktail (Roche, #11836170001). Lysates were incubated on ice for 30 min and clarified by centrifugation at 20 800×g at 4°C for 20 min. Supernatants were quantified by Bradford assay (Bio-Rad Protein Assay Dye Reagent Concentrate #5000006) and samples prepared in 1× lithium dodecyl sulfate sample buffer final concentration (NuPage LDS Sample buffer 4× Invitrogen, #NP0008). When not deployed immediately, lysates were snap-frozen in liquid nitrogen and stored at −80°C until use.
Cell extracts were mixed with a quarter of a volume of NuPage LDS Sample buffer 4× Invitrogen and heated at 95°C for 5 min. […] At the end of electrophoresis, proteins were electrophoretically transferred onto the nitrocellulose membrane (GE Healthcare, Amersham Protran Supported 0.45 µm NC) at 100 V for 90 min on ice in the transfer buffer (48 mM Tris–HCl and 39 mM glycine supplemented with 20% methanol). Transferred membrane was blocked with 5% (w/v) skim milk powder dissolved in TBS-T [20 mM Tris–HCl, pH 7.5, 150 mM NaCl and 0.1% (v/v) Tween 20] at room temperature for 1 h. […]
(Immunoblotting shows a protein as a band on a membrane.)

For the molecule `Cc1ccc(C(=O)Nc2ccc(CN3CCN(C)CC3)c(C(F)(F)F)c2)cc1C#Cc1cnc2[nH]ncc2c1` [GZD-824], the “impact on basal mitophagy in LRRK2 knock-out cells” value in experiment [1] is listed as “neither GZD-824 or GSK3357679A impacted basal mitophagy”. Also, the “Rab12 phosphorylation level after treatment” value in experiment [2] (1 μM, 2 h) is reported as “almost background levels”. Further, the “Rab12 phosphorylation over 24 h time course” value in experiment [2] (1 μM, 24 h) was “remained suppressed”. Moreover, the “time to 50% reduction of Rab12 phosphorylation” value in experiment [2] (1 μM, Figure 2C) was about 10 min. Also, the negative-log IC50 (pIC50) in experiment [2] (Mus musculus, 2 h, Figure 2A, read-out: IC50 inhibition of Rab12 phosphorylation) is about 6.52.
